The molecules below were run against Autotaxin (Homo sapiens, UniProt Q13822) (assay: Bioactivity Assay).
Description: Preparation and Treatment. Stock Solution Preparation. A 10 mM DMSO stock solution was formulated for each compound. A 30 mM DMSO stock solution was formulated for positive control HA130. Preservation: The DMSO stock solutions were stored at room temperature in a desiccator for a short period of time or at −20° C. for a long period of time. Preparation All compounds were serially 3-fold diluted in DMSO from 10 μM to the 10th concentration.A 1000× positive control (10 mM, HA130) and a 1000× negative control (100% DMSO) were prepared. The plates were shaken for 5 min. Preparation of 1× Reaction Buffer:>5× reaction buffer and cold water were mixed well in a volume ratio of 1:4. Preparation of 20 U/mL Choline Oxidase Stock Solution:1 tube of choline oxide in a kit was dissolved in 1× reaction buffer. The aliquots were frozen at −20° C. Preparation of 200 U/mL Horseradish Peroxidase (HRP) Stock Solution:1 tube of HRP in a kit was dissolved in 1 mL of 1× reaction buffer. The aliquots were frozen at −20° C. Preparation of 20 mM Amplex Red Reagent (for Detection) Stock Solution Amplex Red reagent and DMSO were equilibrated at room temperature.
`CCc1nn2ccc(N3CCN(CC(=O)N4CC(O)C4)CC3)nc2c1N(C)c1nc(-c2ccc(F)cc2)c(C#N)s1` [US11591342, Compound S-0041] showed an IC50 of 39 nM. `CCn1nc2ncc(N3CCN(CC(=O)N4CC(O)C4)CC3)cc2c1N(C)c1nc(-c2ccc(F)cc2)c(C#N)s1` [US11591342, Compound S-0043] showed an IC50 of 648 nM. `CCn1nc2cnc(N3CCN(CC(=O)N4CC(O)C4)CC3)cc2c1N(C)c1nc(-c2ccc(F)cc2)c(C#N)s1` [US11591342, Compound S-0044] showed an IC50 of 5530 nM.
